Measurements reported in patent US7319109B2, “Farnesoid X receptor agonists” (Smith Kline Beecham Corporation, priority 2002, dated 2008).

molecular target: T1, Human FXRα Ligand Binding Domain (FXRα LBD) (Homo sapiens, UniProt Q96RI1); test: FXR Affinity Binding Assay: ligand mediated cofactor peptide (SRC-1 LCD2, 676-700) interaction, time resolved fluorescence; conditions: FXRα LBD-APC / europium labeled SRC-1 peptide, TRF signal, at least 2 hours at room temperature; read-out: Activity (pEC50) (converted)
T1 construct: polyhistidine (N); made in house; host or cells: E. coli BL21 (DE3), pRSET-A vector
T1 sequence (Q96RI1 222-472 isoform Q96RI1-2): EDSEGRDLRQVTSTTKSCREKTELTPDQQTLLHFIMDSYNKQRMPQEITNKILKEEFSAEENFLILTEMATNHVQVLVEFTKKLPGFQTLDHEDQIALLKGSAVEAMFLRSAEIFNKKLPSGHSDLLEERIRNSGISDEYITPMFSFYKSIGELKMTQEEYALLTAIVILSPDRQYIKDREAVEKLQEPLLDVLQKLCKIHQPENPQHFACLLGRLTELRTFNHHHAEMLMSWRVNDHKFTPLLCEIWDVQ
Protocol: Determination of a ligand mediated cofactor peptide interaction to quantify ligand binding to the nuclear receptor Farnasoid X Receptor (FXR). The method measures the ability of putative ligands to modulate the interaction between the purified bacterial expressed FXRα (LBD) and a synthetic biotinylated peptide based on residues 676-700 of SRC-1(LCD2, 676-700). […] Detection of the associated complex is measured by time resolved fluorescence (TRF). The purified LBD of FXR is labeled with biotin then mixed with stoichiometric amounts of APC labeled streptavidin (Molecular Probes). The biotinylated peptide is then mixed with a ½ stoichiometric amount of europium labeled streptavidin (Wallac Inc). Each is then blocked with a 5 fold excess of biotin and allowed to equilibrate for 15 min. Equimolar amounts of receptor and peptide are mixed together and allowed to equilibrate for at least 30 min prior to the addition to either a variable or constant concentrations of the sample for which the affinity is to be determined. After equilibration, the time-resolved fluorescent signal is quantitated using a fluorescent plate reader. The affinity of the test compound is estimated from a plot of fluorescence versus concentration of test compound added.
Ligands that promote the complex formation induce a concentration-dependent increase in time-resolved fluorescent signal.
Human FXRα Ligand Binding Domain (FXRα LBD) was expressed in E.coli strain BL21 (DE3) as an amino-terminal polyhistidine tagged fusion protein. Expression was under the control of an IPTG inducible T7 promoter. DNA encoding this recombinant protein was subcloned into the pRSET-A expression vector (Invitrogen). The coding sequence of Human FXRα LBD was derived from Genbank accession number U 68233 (amino acids 222 to 472).
Routinely, 30-40 g cell paste (equivalent to 2-3 liters of the fermentation batch) was resuspended in 200-250 mL TBS, pH 7.2 (25mM Tris, 150 mM NaCl). Cells were lysed by passing 3 times through a French Press and cell debris was removed by centrifugation (30 minutes, 20,000 g, 4° C.). The cleared supernatant was filtered through course pre-filters, and TBS, pH 7.2, containing 500 mM imidazole was added to obtain a final imidazole concentration of 50 mM. This lysate was loaded onto a column (6×8 cm) packed with Sepharose [Ni^++ charged]Chelation resin (Pharmacia) and pre-equilibrated with TBS pH 7.21 50 mM imidazole. After washing to baseline absorbance with equilibration buffer, the column was washed with one column volume of TBS pH 7.2 containing 90 mM imidazole. FXRαLBD was eluted directly with 365 mM imidazole. Column fractions were pooled and dialyzed against TBS, pH 7.2, containing 0.5 mM EDTA and 5 mM DTT. The dialyzed protein sample was concentrated using Centri-prep 10 K (Amicon) and subjected to size exclusion, using a column (3×90 cm) packed with Sepharose S-75 resin (Pharmacia) pre-equilibrated with TBS, pH 7.2, containing 0.5 mM EDTA and 5 mM DTT.
Purified FXRα LBD was desalted/buffer exchanged using PD-10 gel filtration columns into PBS [100 mM NaPhosphate, pH 7.2, 150 mM NaCl]. FXRα LBD was diluted to approximately 10 μM in PBS and five-fold molar excess of NHS-LC-Biotin (Pierce) was added in a minimal volume of PBS. This solution was incubated with gentle mixing for 30 minutes at room temperature. The biotinylation modification reaction was stopped by the addition of 2000× molar excess of Tris-HCl, pH 8. The modified FXRα LBD was dialyzed against 4 buffer changes, each of at least 50 volumes, PBS containing 5 mM DTT, 2 mM EDTA and 2% sucrose.

EC50	Structure (SMILES)
< 100 nM	CC(C)c1onc(-c2c(Cl)cccc2Cl)c1COc1ccc(COc2cccc(C(=O)O)c2)c(Cl)c1 [Example 77, 3-[(2-Chloro-4-{[3-(2,6-dichlorophenyl)-5-isopropylisoxazol-4-yl]methoxy}benzyl)oxy]-benzoic acid]
102 to 1000 nM	CCOC(=O)c1cccc(NCc2ccc(OCc3c(-c4ccccc4OC(F)(F)F)noc3C(C)C)cc2Cl)c1 [Example 95, Ethyl 3-{[2-chloro-4-({5-isopropyl-3-[2-(trifluoromethoxy)phenyl]-4-isoxazolyl}methoxy)benzyl]amino}benzoate]
102 to 1000 nM	CC(C)c1onc(-c2ccccc2OC(F)(F)F)c1COc1ccc(COc2cccc(C(=O)O)c2)c(Cl)c1 [Example 85, 3-{[2-Chloro-4-({5-isopropyl-3-[2-(trifluoromethoxy)phenyl]isoxazol-4-yl}methoxy)-benzyl]oxy}benzoic acid]
102 to 1000 nM	Cc1cc(OCc2c(-c3ccccc3OC(F)(F)F)noc2C(C)C)ccc1NC(=O)c1cccc(C(=O)O)c1 [Example 33, 3-{[4-({5-Isopropyl-3-[2-(trifluoromethoxy)phenyl]-4-isoxazolyl}methoxy)-2-methylanilino]carbonyl}benzoic acid]
102 to 1000 nM	COC(=O)c1cccc(S(=O)(=O)Nc2ccc(OCc3c(-c4c(Cl)cccc4Cl)noc3C(C)C)cc2Cl)c1 [Example 36, Methyl 3-{[(2-chloro-4-{[3-(2,6-dichlorophenyl)-5-isopropylisoxazol-4-yl]methoxy}-phenyl)amino]sulfonyl}benzoate]
102 to 1000 nM	Cc1cc(OCc2c(-c3ccccc3OC(F)(F)F)noc2C(C)C)ccc1NS(=O)(=O)c1cccc(C(=O)O)c1 [Example 69, 3-({[4-({5-Isopropyl-3-[2-(trifluoromethoxy)phenyl]isoxazol-4-yl}methoxy)-2-methyl-phenyl]amino}sulfonyl)benzoic acid]
102 to 1000 nM	CC(C)c1onc(-c2c(Cl)cccc2Cl)c1COc1ccc(CN(C)c2cccc(C(=O)O)c2)c(Cl)c1 [Example 93, 3-[(2-Chloro-4-{[3-(2,6-dichlorophenyl)-5-isopropylisoxazol-4-yl]methoxy}benzyl)(methyl)amino]benzoic acid]
102 to 1000 nM	COC(=O)c1cccc(OCc2ccc(OCc3c(-c4ccccc4OC(F)(F)F)noc3C(C)C)cc2Cl)c1 [Example 83, Methyl 3-{[2-chloro-4-({5-isopropyl-3-[2-(trifluoromethoxy)-phenyl]isoxazol-4-yl}methoxy)benzyl]oxy}benzoate]
1020 to 10000 nM	CC(C)c1onc(-c2ccccc2OC(F)(F)F)c1COc1ccc(NS(=O)(=O)c2cccc(C(=O)O)c2)c(Cl)c1 [Example 68, 3-({[2-Chloro-4-({5-isopropyl-3-[2-(trifluoromethoxy)phenyl]isoxazol-4-yl}methoxy)-phenyl]amino}sulfonyl)benzoic acid]
102 to 1000 nM	CCc1onc(Cc2c(Cl)cccc2Cl)c1COc1ccc(COc2cccc(C(=O)O)c2)c(Cl)c1 [Example 87, 3-[(2-Chloro-4-{[3-(2,6-dichlorobenzyl)-5-ethylisoxazol-4-yl]methoxy}benzyl)oxy]benzoic acid]
102 to 1000 nM	COC(=O)c1cccc(S(=O)(=O)N(C)c2ccc(OCc3c(-c4ccccc4OC(F)(F)F)noc3C(C)C)cc2Cl)c1 [Example 70, Methyl 3-{[[2-chloro-4-({5-isopropyl-3-[2-(trifluoromethoxy)phenyl]-isoxazol-4-yl}methoxy)phenyl](methyl)amino]sulfonyl}benzoate]
102 to 1000 nM	Cc1cc(OCc2c(-c3ccccc3OC(F)(F)F)noc2C(C)C)ccc1N(C)S(=O)(=O)c1cccc(C(=O)O)c1 [Example 73, 3-{[[4-({5-Isopropyl-3-[2-(trifluoromethoxy)phenyl]isoxazol-4-yl}methoxy)-2-methyl-phenyl](methyl)amino]sulfonyl}benzoic acid]
102 to 1000 nM	COC(=O)c1cccc(S(=O)(=O)N(C)c2ccc(OCc3c(-c4c(Cl)cccc4Cl)noc3C(C)C)cc2Cl)c1 [Example 41, Methyl 3-{[(2-chloro-4-{[3-(2,6-dichlorophenyl)-5-isopropylisoxazol-4-yl]methoxy}-phenyl)(methyl)amino]sulfonyl}benzoate]

The remaining lines, values behind:

Structure (SMILES)	EC50
CC(C)c1onc(-c2c(Cl)cccc2Cl)c1COc1ccc(N(C)C(=O)c2ccc(C(=O)O)cc2)c(Cl)c1 [Example 31, 4-[(2-Chloro-4-{[3-(2,6-dichlorophenyl)-5-isopropyl-4-isoxazolyl]methoxy}methylanilino)carbonyl]benzoic acid]	102 to 1000 nM
COC(=O)c1ccc(CN(C)c2ccc(OCc3c(-c4ccccc4OC(F)(F)F)noc3C(C)C)cc2C)cc1 [Example 22, Methyl 4-{[4-({5-isopropyl-3-[2-(trifluoromethoxy)phenyl]-4-isoxazolyl}methoxy)-2-dimethylanilino]methyl}benzoate]	102 to 1000 nM
Cc1cc(OCc2c(Cc3ccccc3Cl)noc2C(C)C)ccc1N(C)Cc1cccc(C(=O)O)c1 [Example 16, 3-{[(4-{[3-(2-Chlorobenzyl)-5-isopropylisoxazol-4-yl]methoxy}-2-methylphenyl)(methyl)-amino]methyl}benzoic acid]	102 to 1000 nM
Cc1cc(OCc2c(-c3c(Cl)cccc3Cl)noc2C(C)C)ccc1N(C)Cc1ccc2nonc2c1 [Example 7, N-(2,1,3-Benzoxadiazol-5-ylmethyl)-4-{[3-(2,6-dichlorophenyl)-5-isopropyl-4-isoxazolyl]methoxy}-N,2-dimethylaniline]	102 to 1000 nM
COC(=O)c1ccc(CN(C)c2ccc(OCc3c(-c4c(Cl)cccc4Cl)noc3C(C)C)cc2C)cc1 [Example 2, Methyl 4-[(4-{[3-(2,6-dichlorophenyl)-5-isopropyl-4-isoxazolyl]methoxy}-2-dimethylanilino)methyl]benzoate]	< 100 nM
Cc1cc(OCc2c(-c3c(Cl)cccc3Cl)noc2C(C)C)ccc1NC(=O)c1cccc(C(=O)O)c1 [Example 26, 3-[(4-{[3-(2,6-Dichlorophenyl)-5-isopropyl-4-isoxazolyl]methoxy}-2-methylanilino)carbonyl]benzoic acid]	1020 to 10000 nM
CC(C)c1onc(-c2c(Cl)cccc2Cl)c1COc1ccc(NC(=O)c2ccc(C(=O)O)cc2)c(Cl)c1 [Example 23, 4-{[(2-Chloro-4-{[3-(2,6-dichlorophenyl)-5-isopropylisoxazol-4-yl]methoxy}phenyl)amino]carbonyl}benzoic acid]	102 to 1000 nM
COC(=O)c1ccoc1CN(C)c1ccc(OCc2c(-c3c(Cl)cccc3Cl)noc2C(C)C)cc1C [Example 6, Methyl 2-[(4-{[3-(2,6-dichlorophenyl)-5-isopropyl-4-isoxazolyl]methoxy}-2-dimethylanilino)methyl]-3-furoate]	102 to 1000 nM
Cc1cc(OCc2c(-c3c(Cl)cc(Cl)cc3Cl)noc2C(C)C)ccc1N(C)Cc1cccc(C(=O)O)c1 [Example 14, 3-{[(4-{[5-Isopropyl-3-(2,4,6-trichlorophenyl)isoxazol-4-yl]methoxy}-2-methylphenyl)-(methyl)amino]methyl}benzoic acid]	102 to 1000 nM
Cc1cc(OCc2c(-c3c(Cl)cccc3Cl)noc2C(C)C)ccc1N(C)Cc1ccc(-c2csnn2)cc1 [Example 8, N-(4-{[3-(2,6-Dichlorophenyl)-5-isopropyl-4-isoxazolyl]methoxy}-2-methylphenyl)-N-methyl-N-[4-(1,2,3-thiadiazol-4-yl)benzyl]amine]	102 to 1000 nM
